Results: patent US11566007B2, “Ras inhibitors” (Revolution Medicines, Inc., priority 2019, dated 2023)

Tests used:
[1] = target: NRAS Q61R (Homo sapiens (Human), UniProt P01111+P62937, Q61R); assay: Ras-Raf (BRAF RBD) disruption / FRET / MOA assay, NRAS Q61R; assay type: biochemical; details: NRAS Q61R; Ras-Raf disruption/FRET/MOA assay; read-out: IC50* NRAS Q61R FRET data
How it was run: (§1)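 TR-FRET disruption of nucleotide-loaded Ras binding to BRAF RBD via compound-driven ternary complex with cyclophilin A. Compound as 10-point 3-fold series from 30 μM final, 3 h at 25° C, then anti-His Eu-W1024 (10 nM) and anti-GST allophycocyanin (50 nM) for 1.5 h. IC50 from decreased FRET ratio versus DMSO.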

[2] = tested on: NCI-H358 (K-Ras G12C); assay: CellTiter-Glo cell viability assay, NCI-H358; assay type: cell-based, human; details: Homo sapiens, NCI-H358, 120 h, NCI-H358, 5-day treatment; class symbols; read-out: Additional H358 Cell Viability assay data (K-Ras G12C, IC50)
How it was run: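 Viability measured by CellTiter-Glo luminescence on day 5 following direct addition of compound to plated cells. Values expressed as percent of mean DMSO signal; curves fitted with a four-parameter logistic model.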

[3] = target: KRAS G12D (Homo sapiens (Human), UniProt P01116+P62937, G12D); assay: Ras-Raf (BRAF RBD) disruption / FRET / MOA assay, KRAS G12D; assay type: biochemical; details: Ras-Raf disruption/FRET/MOA assay; class symbols; read-out: KRAS G12D FRET data IC50
How it was run: (§2)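 Ras:RAF disruption was scored as a fall in TR-FRET ratio relative to DMSO. Compound ranged in 3-fold steps over 10 points from 30 μM final; incubation ran 3 h at 25° C, detection antibodies a further 1.5 h. Reported as IC50.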

[4] = target: KRAS Q61H (Homo sapiens (Human), UniProt P01116+P62937, Q61H); assay: Ras-Raf (BRAF RBD) disruption / FRET / MOA assay, KRAS Q61H; assay type: biochemical; details: Ras-Raf disruption/FRET/MOA assay; class symbols; read-out: KRAS Q61H FRET data IC50
How it was run: as §1

[5] = target: K-Ras G12C (Homo sapiens (Human), UniProt P01116+P62937, G12C); assay: Ras-Raf (BRAF RBD) disruption / FRET / MOA assay, KRAS G12C; assay type: biochemical; details: KRAS G12C; Ras-Raf disruption/FRET/MOA assay; read-out: IC50* KRAS G12C FRET data
How it was run: as §2

[6] = target: NRAS WT (Homo sapiens (Human), UniProt P01111+P62937); assay: Ras-Raf (BRAF RBD) disruption / FRET / MOA assay, NRAS WT; assay type: biochemical; details: read-out: IC50* NRAS WT FRET data
How it was run: as §1

KRAS Q61H, sequence (P01116-2 other isoform, or with tags, fused parts or gaps Q61H): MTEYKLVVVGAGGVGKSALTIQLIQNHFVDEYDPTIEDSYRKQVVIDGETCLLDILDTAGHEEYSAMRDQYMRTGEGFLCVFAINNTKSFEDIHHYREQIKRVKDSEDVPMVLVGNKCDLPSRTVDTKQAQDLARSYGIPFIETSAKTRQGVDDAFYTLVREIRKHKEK
KRAS Q61H, sequence (P62937 whole entry): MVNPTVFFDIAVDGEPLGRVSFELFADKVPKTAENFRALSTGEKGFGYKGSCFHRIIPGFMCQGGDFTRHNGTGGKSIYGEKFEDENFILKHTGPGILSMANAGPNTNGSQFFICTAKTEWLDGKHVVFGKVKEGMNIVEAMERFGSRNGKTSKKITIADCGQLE
K-Ras G12C, sequence (P01116-2 other isoform, or with tags, fused parts or gaps G12C): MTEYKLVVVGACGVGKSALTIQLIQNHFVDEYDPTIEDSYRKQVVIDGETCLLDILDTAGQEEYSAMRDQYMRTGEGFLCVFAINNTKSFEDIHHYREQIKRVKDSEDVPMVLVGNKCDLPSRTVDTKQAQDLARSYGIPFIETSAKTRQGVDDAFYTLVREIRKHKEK
K-Ras G12C, sequence (P62937 whole entry): as the sequence (P62937 whole entry) above
NRAS Q61R, sequence (P01111 whole entry Q61R): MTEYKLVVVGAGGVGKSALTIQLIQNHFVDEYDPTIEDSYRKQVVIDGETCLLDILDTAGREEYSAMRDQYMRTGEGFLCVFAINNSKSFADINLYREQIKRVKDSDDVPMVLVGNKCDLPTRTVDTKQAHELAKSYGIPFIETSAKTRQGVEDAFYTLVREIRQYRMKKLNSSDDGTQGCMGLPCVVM
NRAS Q61R, sequence (P62937 whole entry): as the sequence (P62937 whole entry) above
KRAS G12D, sequence (P01116-2 other isoform, or with tags, fused parts or gaps G12D): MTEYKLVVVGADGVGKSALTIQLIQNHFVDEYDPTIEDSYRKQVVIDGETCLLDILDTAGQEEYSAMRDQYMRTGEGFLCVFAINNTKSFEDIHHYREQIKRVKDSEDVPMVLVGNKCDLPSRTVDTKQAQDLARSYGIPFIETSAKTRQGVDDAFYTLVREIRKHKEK
KRAS G12D, sequence (P62937 whole entry): as the sequence (P62937 whole entry) above
NRAS WT, sequence (P01111 whole entry): as the sequence (P01111 whole entry Q61R) above, with R61Q counted along it
NRAS WT, sequence (P62937 whole entry): as the sequence (P62937 whole entry) above

Compound | IC50 [1] | IC50 [2] | IC50 [3] | IC50 [4] | IC50 [5] | IC50 [6]
C=CC(=O)N1CCO[C@H]2CN(C(=O)N(C)[C@H](C(=O)N[C@H]3Cc4nc(cs4)-c4ccc5c(c4)c(c(-c4cccnc4[C@H](C)OC)n5CC)CC(C)(C)COC(=O)[C@@H]4CCCN(N4)C3=O)C(C)C)C[C@@H]21 (atropisomer, axis not shown) [Example A544] | 100 to 1000 nM | < 10 nM | 1000 to 10000 nM | 10 to 100 nM | < 10 nM | 100 to 1000 nM
CO[C@@H](C)c1ncccc1-c1c2c3cc(ccc3n1CC(F)(F)F)-c1cc(CF)cc(c1)C[C@H](NC(=O)[C@@H](COC1CN(C(=O)C#CC(C)(C)N(C)C)C1)C(C)C)C(=O)N1CCC[C@H](N1)C(=O)OCC(C)(C)C2 (atropisomer, axis not shown) [Example A589] | > 10000 nM | < 10 nM | > 10000 nM | 1000 to 10000 nM | 10 to 100 nM | 1000 to 10000 nM
CCn1c(-c2cccnc2[C@H](C)OC)c2c3cc(ccc31)-c1csc(n1)C[C@H](NC(=O)C[C@@H]1COC3(CN(C(=O)C#CC(C)(C)N(C)C)C3)O1)C(=O)N1CCC[C@H](N1)C(=O)OCC(C)(C)C2 (atropisomer, axis not shown) [Example A691] | 1000 to 10000 nM | < 10 nM | 1000 to 10000 nM | 1000 to 10000 nM | < 10 nM | 1000 to 10000 nM
CCn1c(-c2cccnc2[C@H](C)OC)c2c3cc(ccc31)-c1nc(co1)C[C@H](NC(=O)[C@@H](COC1CN(C(=O)C#CC(C)(C)N(C)C)C1)C(C)C)C(=O)N1CCC[C@H](N1)C(=O)OCC(C)(C)C2 (atropisomer, axis not shown) [Example A675, (2R)-2-(((1-(4-(dimethylamino)-4-methylpent-2-ynoyl)azetidin-3-yl)oxy)methyl)-N-((6^3S,4S,Z)-1^1-ethyl-1^2-(2-((S)-1-methoxyethyl)pyridin-3-yl)-10,10-dimethyl-5,7-dioxo-6^1,6^2,6^3,6^4,6^5,6^6-hexahydro-1^1H-8-oxa-2(2,4)-oxazola-1(5,3)-indola-6(1,3)-pyridazinacycloundecaphane-4-yl)-3-methylbutanamide] | > 10000 nM | < 10 nM | > 10000 nM | > 10000 nM | 10 to 100 nM | > 10000 nM
C=CC(=O)N1CCOC2(CCN(C(=O)N(C)[C@H](C(=O)N[C@H]3Cc4nsc(n4)-c4ccc5c(c4)c(c(-c4cccnc4[C@H](C)OC)n5CC)CC(C)(C)COC(=O)[C@@H]4CCCN(N4)C3=O)C(C)C)CC2)C1 (atropisomer, axis not shown) [Example A545] | 100 to 1000 nM | 10 to 100 nM | 1000 to 10000 nM | 10 to 100 nM | 10 to 100 nM | 100 to 1000 nM
CCn1c(-c2cccnc2[C@H](C)OC)c2c3cc(ccc31)-c1cccc(c1)C[C@H](NC(=O)[C@@H](CO[C@@H]1CCN(C(=O)C#CC(C)(C)N(C)C)C1)C(C)C)C(=O)N1CCC[C@H](N1)C(=O)OCC(C)(C)C2 (atropisomer, axis not shown) [Example A584] | > 10000 nM | < 10 nM | > 10000 nM | 1000 to 10000 nM | 10 to 100 nM | 1000 to 10000 nM
CCn1c(-c2cccnc2[C@H](C)OC)c2c3cc(ccc31)-c1cc(CF)cc(c1)C[C@H](NC(=O)[C@@H](COC1CN(C(=O)C#CC(C)(C)N(C)C)C1)C(C)C)C(=O)N1CCC[C@H](N1)C(=O)OCC(C)(C)C2 (atropisomer, axis not shown) [Example A587] | > 10000 nM | < 10 nM | > 10000 nM | > 10000 nM | 10 to 100 nM | > 10000 nM
